Experimental data published in patent publication US11383003B2, “Water soluble farnesol analogs and their use” (Kimberly-Clark Worldwide, Inc., priority 2012, dated 2022).

Key:
C. albicans SC5314 [1] = test: Effect of quorum sensing molecules on lag phase/growth of C. albicans in YPD broth; format: cell-based, Candida albicans; details: 100 μM, 37° C., 6 h
C. elegans glp4; sek1 = test: Toxicity: death rate of C. elegans glp4; sek1 fed on E. coli OP50; details: for Death rate (%): 2 mM, worms fed on E. coli OP50, 25° C.
Experimental: The toxicity of the selected compounds/products were tested using the C. elegans glp4; sek1 fed on E. coli OP50 (Table 5).
Stock cultures of C. albicans SC 5314 was subcultured into 3 ml of YPD broth and incubated at 30° C. Then the overnight culture in broth was spread onto YPD agar, and incubated at 30° C. The 24 h old lawn of SC5314 was used to feed worms for 2 h at 25° C. The control were worms fed on OP50.
The worms were washed off the YPD plates and washed twice with M9 buffer. The worms were resuspended in screening media, M9 buffer with 0.3% Tween 80. The worm suspension (50 μl) was dispensed into the wells of 96-well plates, 20-30 worms/well. Aliquots (50 μl) of compounds in screening media were added to wells, 5 wells each compound. The 96 well plates were incubated at 25° C. for up to 5 days. Live and dead worms were counted during incubation, and the death rates of worms were calculated.

[2] = cited from earlier work
[3] = tested on: C. elegans glp4; sek1 infected with C. albicans SC5314; test: Death rate of C. elegans glp4; sek1 infected with C. albicans SC5314, 96 well plates; format: in vivo, Caenorhabditis elegans
Experimental: Caenorhabditis elegans glp4; sek1 was used as the model for […]. Breger et al. (Breger, J.; Fuchs, B. B.; Aperis, G.; Moy, T. I., Ausubel, F. M., Mylonakis, E.; “Antifungal chemical compounds identified using a C. elegans pathogenicity assay.” PLoS Pathogens 3: 168-178; 2007) reported that the glp-4 mutation rendered the strain incapable of producing progeny at 25° C., and the sek-1 mutation enhanced the sensitivity of the strain to various pathogens, thereby decreasing the time for screening assays. It was observed that no progenies was produced by the Caenorhabditis elegans glp4; sek1 strain after 3 d incubation at 25° C.
The synchronization of C. elegans was achieved by collecting the eggs and arresting the larvae at L1 stage. The commonly used bleach treatment was able to release the eggs from the adult worms. However, it was observed that the released eggs were not always able to hatch after treated with sodium hypochlorite (0.2, 0.3, 0.4, 0.5, 0.7 or 1%) for 3-5 min. A modified egg laying method was developed to synchronize worms to L1 stage. In brief, stock cultures of C. elegans glp4; sek1, maintained on Nematode Growth Media plates (NGM plates), were subcultured onto NGM plates with OP 50 and incubated at 15° C. for 6-9 days. Then a chunk (1 cm^2) of agar with gravid adults was subcultured again onto NGM plates with OP50 and incubated at 15° C. After incubation of 3-7 days, the worms were gently washed off with 3 ml of M 9 buffer on the rotating platform (100 rpm). The plate was tilted on its lid to allow the liquid and worms drain to one side of the plate. The liquid and worms were aspirated off. The plate was washed again with M9 buffer three more times to remove OP50 as much as possible. After washing, the plate was incubated at 25° C. overnight to let the eggs hatch overnight. Since there was no OP50, the larvae were arrested at the L1 stage. The live C. elegans glp4; sek1 was quite curvy; whereas the dead C. elegans glp4; sek1 tended to be straight, and in most cases the dead worms with the hyphae of C. albicans pieced through the body. The curvy shape and movement after shaking were used as the criteria for live.
The In vitro screening assay, based on the method of Tampakakis et al (Tampakakis, E.; Okoli, I.; Mylonakis, E.; “A C. elegans-based, whole animal, in vivo screen for the identification of antifungal compounds.” Nature Protocols 3:1925-1931; 2008), is described as follows:
L1 worms, which were prepared by the modified egg-laying method, were collected by centrifugation at 675 g for 30 s at room temperature, and the supernatant was removed. Worms were resuspended in M 9 buffer and inoculated on NGM agar plates with OP50, ˜1000 worms per plate. After 2-3 days incubation at 25° C., the worms were washed off with M 9 buffer for the […] assay.
The control were worms fed on OP50.

C. albicans SC5314 [4] = test: Germ tube formation (GTF %) in vitro screening, GlcNAc-triggered differentiation assay; format: cell-based, Candida albicans
Experimental: Based on the results in FIG. 3, single cell suspensions of SC5314 was prepared as follows. Stock culture of C. albicans SC5314 was streaked onto YPD agar (YPDA) and incubated at 30° C. overnight. Single colonies were subcultured in YPD broth (YPDB) and incubated 30° C., 200 rpm overnight. Overnight culture in YPDB was subcultured in YPD broth again and incubated 30° C., 200 rpm 48 h. Cells were collected by centrifugation (4000 g 10 min) at 4° C., washed three times with sterile water, and then resuspended in sterile water a final concentration of 10^9 colony-forming unit/ml (cfu/ml). The suspension were stored at 4° C. at least 1 d, then subcultured into YPDB to a final concentration of 10^6 cfu/ml. After 48 h incubation, cell suspension was examined under the microscope for single cell percentage. When the single cell percentage exceeded 80%, cells were collected and washed three times with water, then resuspended in water to a final concentration of 10^9 cfu/ml, and stored at 4° C. for no more than a month.
Two approaches were taken to determine the percentage of cells with germ tubes formed (GTF %). One way was to count the total cells at the start of incubation, and count the ungerminated cells after incubation, then calculate the GTF % as (1—ungerminated cells/total cells at 0 h)*100. Another way was to store the samples at 15° C. for 20 h after incubation, then count the germinated cells and total cells after disaggregation, then calculated the GTF % as (germinated cells/total cells after storage)*100. […] Therefore, for practical purposes, the GTF % was determined by the first method, that is, GTF %=(1—ungerminated cells/total cells at 0 h)*100, for the in vitro screening discussed herein.
A screening medium, containing 11 mM imidazole buffer, 3 mM MgSO4, and 2.6 mM N-acetyl-D-glucosamine (GlcNAc) has been used to study the effect of farnesol analogs on the germ tube formation of C. albicans. Here, the germ tube formation of C. albicans in modified screening media was assessed with various concentrations of imidazole buffer (10 mM, 30 mM and 50 mM) and MgSO4 (0.5 mM, 1.5 mM and 3 mM). […] It took 2 h to 3 h for the GTF % to reach above 80%. For practical purposes, the screening medium, containing 11 mM imidazole buffer, 0.5 mM MgSO4, and 2.6 mM N-acetyl-D-glucosamine (GlcNAc) was adopted for in vitro screening the quorum sensing inhibitory effect of farnesol compounds.
The in vitro screening assay was based on the N-acetylglucosamine (GlcNAc)-triggered differentiation assay (Hornby et al., “Quorum sensing in the dimorphic fungus Candida albicans is mediated by farnesol;” Applied and Environmental Microbiology 67:2982-2992; 2001), which included 0.56 ml of 0.1 M imidazole buffer (pH 6.5), 0.15 ml of 0.1 M MgSO4, 0.13 ml of 0.1 M GlcNAc, and 4.16 ml of sterilized water. Bioassays of quorum sensing candidates were conducted by the addition of the chemical, as a solution in 100% methanol, to the bioassay media; the final concentration of methanol was no greater than 1%.

[5] = 0.4 mM, 4 days, 25° C., two replicates
[6] = 0.4 mM, 5 days, 25° C., two replicates
[7] = 1.0 mM, 4 days, 25° C., two replicates
[8] = 1.0 mM, 5 days, 25° C., two replicates
[9] = 2.0 mM, 4 days, 25° C., two replicates (* three)
[10] = 2.0 mM, 5 days, 25° C., two replicates (* three)
[11] = 3.0 mM, 4 days, 25° C., two replicates
[12] = 3.0 mM, 5 days, 25° C., two replicates

Row | Compound | effect on the growth of C. albicans SC5314 (in words) (C. albicans SC5314 [1]) | Death rate (%) (C. elegans glp4; sek1) | GTF % (mean ± SEM, n = 2) (C. albicans SC5314 [4]; 100 μM, * one replicate) [%] | GTF % (mean ± SEM, n = 2) (C. albicans SC5314 [4]; 200 μM) [%] | % change in the death rate compared to the control [3, 5] [%] | % change in the death rate compared to the control [3, 6] [%] | % change in the death rate compared to the control [3, 7] [%] | % change in the death rate compared to the control [3, 8] [%] | % change in the death rate compared to the control [3, 9] [%] | % change in the death rate compared to the control [3, 10] [%] | % change in the death rate compared to the control [3, 11] [%] | % change in the death rate compared to the control [3, 12] [%] | other results
1 | OCCc1ccc(O)cc1 [tyrosol] | little effect on the growth |  |  |  |  |  |  |  |  |  |  |  | 
2 | CC(C)=CCC/C(C)=C/CC/C(C)=C/CO [E,E-farnesol, reference compound] | little effect on the growth | 7 | 44.0 ± 3.1 | 18.4 ± 2.9 |  |  |  |  |  |  |  |  | toxicity to C. elegans fed on E. coli OP50 (in words) (C. elegans glp4; sek1; in vivo): slightly higher than the control; solubility in water (in words) [2]: insoluble in water; % change in the death rate compared to the control ([3]; 0.4 mM, day 1, initial screening): −4%; % change in the death rate compared to the control ([3]; 0.4 mM, day 4, initial screening): −16%; % change in the death rate compared to the control ([3]; 0.4 mM, day 5, initial screening): −19%; effect on death rate of infected C. elegans (in words) ([3]; 0.4 mM, initial screening): reduced the death rate slightly; % change in the death rate compared to the control ([3]; 1 mM, day 1, initial screening): −12%; % change in the death rate compared to the control ([3]; 1 mM, day 4, initial screening): 14%; % change in the death rate compared to the control ([3]; 1 mM, day 5, initial screening): 10%; % change in the death rate compared to the control ([3]; 2 mM, day 1, initial screening): −8%; % change in the death rate compared to the control ([3]; 2 mM, day 4, initial screening): 19%; % change in the death rate compared to the control ([3]; 2 mM, day 5, initial screening): 8%; % change in the death rate compared to the control ([3]; 3 mM, day 1, initial screening): −21%; % change in the death rate compared to the control ([3]; 3 mM, day 4, initial screening): 23%; % change in the death rate compared to the control ([3]; 3 mM, day 5, initial screening): 12%; effect on death rate of infected C. elegans (in words) ([3]; higher concentration (above 0.4 mM), initial screening): resulted in higher death rate of the worm
3 | CC(C)=CCC/C(C)=C/CC/C(C)=C/COC(=O)CCC(=O)OCCCO [#3 synthesized analog] |  | 6 | 66.9 ± 1.5 | 32.9 ± 1.0 | −6 ± 7 | 10 ± 3 | 1 ± 6 | 3 ± 8 | −12 ± 9 | 9 ± 10 | −2 ± 2 | 7 ± 1 | effect on death rate of infected C. elegans (in words) ([3]; 0.4 mM to 3 mM (the tested four concentrations)): did not have significant effect on the death of the worms
4 | CC(C)=CCC/C(C)=C/CC/C(C)=C/COC(=O)CCC(=O)O [#1 synthesized analog] |  | 3.3 ± 1.2 | 55.9 ± 8.2 | 31.2 ± 5.0 | −43 ± 8 | −30 ± 2 | −33 ± 5 | −29 ± 11 | −23 ± 4 | −34 ± 11 | 20 ± 3 | 10 ± 9 | effect on death rate of infected C. elegans (in words) ([3]; 0.4 mM to 2 mM): significantly reduced the death rate; effect on death rate of infected C. elegans (in words) ([3]; 3 mM): increased the death rate; effect on death rate of infected C. elegans (in words) ([3]; key finding, no concentration stated): significantly reduced the death rate
